Laboratory results reported in patent publication US6534515B2, “20,21-dinor-eburnamenines” (Aventis Pharma S.A., priority 1989, dated 2003).

Legend:
[1] = tested on: adrenergic alpha2 receptors; assay: Affinity for the adrenergic alpha 2 receptors (3H rauwolscine displacement, rat cortex membranes); assay type: binding; details: rat brain cortex membranes, 3H rauwolscine 0.15 nM, 45 minutes at 25° C.; CD/CX = concentrations of phentolamine/product inhibiting 50% of specific fixation
Description: 1) Affinity for the Adrenergic Alpha 2 Receptors:
10 cortices removed from the brains of male rats weighing an average of 150 g were homogenized in 90 ml of 0.32 M sucrose. After centrifuging 1000 g of the homogenized mixture, for 10 minutes at 0° C.+4° C., the deposit was suspended in 240 ml of 50 mM Tris HCl pH 7.7 buffer, and centrifuged at 30,000 g for 15 minutes at 0°+4° C. The new deposit was suspended in 480 ml of 50 mM NaKPO4 pH 7.4 buffer. Then, 2 ml of suspension were incubated for 45 minutes at 25° C. in the presence of ^3H rauwolscine at a concentration of 0.15 nM:
I) alone or II) with increasing concentrations of the product under test or, III) to determine the non-specific fixation with non-radioactive phentolamine at a concentration of 10^−5M.
The incubated suspensionis were filtered on Whatman GF/C and the filters were washed three times with 5 ml of NaKPO4 pH 7.4 buffer at 0° C. The ratioactivity of the filters was measured by liquid scintillation. The affinity of the product tested for the adrenergic alpha2 receptors was determined relative to phentolamine as reference product.
CD=concentration of phentolamine inhibiting 50% of the specific fixation of ^3H rauwolscine,
CX=concentration of the product under test inhibiting 50% of the specific fixation of ^3H rauwolscine.
The relative affinity was calculated by the relation: […]

[2] = tested on: male mice of CD1 CHARLES RIVER type; assay: Hypobaric anoxia survival time in mice; assay type: in vivo; details: intra-peritoneally 10 mg/kg, 60 minutes before the test, pressure drop of 630 mm Hg, relative to control animals
Description: Male mice of CD1 CHARLES RIVER type weighing 20 to 25 grams having gone without food for 6 hours were placed in a 2-liter chamber in which a pressure drop of 630 mm Hg was carried out according to the following kinetics:
The survival time was measured from the time TO and over a maximum time of 3 minutes and it was about 70 seconds for the control animals. The rectal temperature was measured immediately before the determination of the survival time. The products were administered intra-peritoneally at a dose of 10 mg/kg and in a volume of 10 ml/kg 60 minutes before the test and the control animals received the vehicle. The results were determined as a percentage of increase in the survival time relative to the control animals.

Row | Molecule | ARL (relative affinity, from CD and CX, relative to phentolamine as reference product) [1] | % increase in survival time [2] [%]
1 | [16α, (±)-20,21-dinoreburnamenin-15-methanol [Example 13] | 346 | 11
2 | Ethyl [16α, (±)]-20,21-dinoreburnamenine-15-acetate [Example 12] | 942 | 
3 | [16α, (±)]-15-(1-propynyl)-20,21-dinoreburnamenine [Example 2] | 367 | 
4 | [16α, (±)]-15-methyl-20,21-dinoreburnamenine [Example 5] | 456 | 34
5 | [16α, (±)]-N,N-dimethyl-20,21dinoreburnamenin-15-methanamine [Example 14] |  | 12
6 | [16α, (±)]-14,15-dihydro-15-methylene-20,21-dinorburnamenine [Example 11] | 343 | 
7 | CC1=Cn2c3c(c4ccccc42)CCN2CCCC1C32 (stereo not drawn) [Example 7, (3-α)-15-methyl-20,21-dinoreburnameinine] | 980 | 
